Data taken from US8883797B2, “Metalloenzyme inhibitor compounds” (Viamet Pharmaceuticals, Inc., priority 2011, dated 2014).
In brackets after ≈: the same amount, converted by molar mass.

system: Septoria tritici (ATCC 26517); experiment: Minimum Inhibitory Concentration (MIC) (Septoria tritici), CLSI-based microdilution; type: cell-based; settings: Zymoseptoria tritici, ATCC26517, 168 h; S. tritici ATCC 26517; 50% growth reduction; 7 days at 22 °C; read-out: Septoria Rating (MIC)
Description: C. Minimum Inhibitory Concentration (MIC) (Septoria tritici) Compounds of the present disclosure were assessed for their ability to inhibit the growth of a common strain of the fungal plant pathogen Septoria tritici (ATCC 26517) using a procedure based on a Clinical and Laboratory Standards Institute (CLSI) microdilution assay protocol for filamentous fungi. Stock solutions of the test compounds and standards were prepared in DMSO at 6400 μg/mL. Each stock solution was used to prepare a 2-fold dilution series ranging from 16 to 0.016 μg/mL (total of 11 compound concentrations) in RPMI-1640 (Roswell Park Memorial Institute) medium containing 3-(N-morpholino)propanesulfonic acid (MOPS) buffer and 2% DMSO. A 100 μL aliquot of the dilutions was added to columns 1 (16 μg/mL compound) through 11 (0.016 μg/mL compound) of a 96-well microtiter plate. This format was replicated in a second row of the microtiter plate. Thus, each microtiter plate could include 11 concentrations of four test or control compounds replicated twice. A 100 μL aliquot of RPMI-1640/MOPS/2% DMSO medium was added to column 12 (no compound control) of the microtiter plate. A fresh culture of S. tritici was used to prepare a solution of approximately 5×10^4 colony-forming units per milliliter (cfu/mL) in RPMI/MOPS medium without DMSO. A 100 μL aliquot of this solution was added to all 96 wells in the microtiter plate. […] The assay plates were incubated at 22° C. for seven days in the dark without shaking. […] In each case of Table 3 the rating scale is as follows: […]

MIC [µg/mL] | Structure (SMILES)
≤ 0.5 | OC(Cn1cnnn1)(c1ccc(Cl)cc1F)C(F)(F)c1ccc2cc(Cl)ccc2n1 (stereo not drawn) [8(−), 2-(4-Chloro-2-fluorophenyl)-1-(6-chloroquinolin-2-yl)-1,1-difluoro-3-(1H-tetrazol-1-yl)propan-2-ol]
1.5 to 4 (≈ 3.42 to 9.13 µM) | OC(Cn1cnnn1)(c1ccc(F)cc1F)C(F)(F)c1nc(Br)cs1 (centres unmarked) [Compound 2, 1-(4-Bromothiazol-2-yl)-2-(2,4-difluorophenyl)-1,1-difluoro-3-(1H-tetrazol-1-yl)propan-2-ol]
≤ 0.5 | OC(Cn1cnnn1)(c1ccc(F)cc1F)C(F)(F)c1nc2ccccc2s1 (centres unmarked) [Compound 6, 1-(Benzo[d]thiazol-2-yl)-2-(2,4-difluorophenyl)-1,1-difluoro-3-(1H-tetrazol-1-yl)propan-2-ol]
> 4 | OC(Cn1cnnn1)(c1ccc(F)cc1F)C(F)(F)c1nccs1 (centres unmarked) [Compound 12, 2-(2,4-Difluorophenyl)-1,1-difluoro-3-(1H-tetrazol-1-yl)-1-(thiazol-2-yl)propan-2-ol]
0.5 to 1.5 (≈ 1.4 to 4.19 µM) | OC(Cn1cnnn1)(c1ccc(F)cc1F)C(F)(F)c1cccs1 (centres unmarked) [Compound 14, 2-(2,4-Difluorophenyl)-1,1-difluoro-3-(1H-tetrazol-1-yl)-1-(thiophen-2-yl)propan-2-ol]
1.5 to 4 (≈ 3.47 to 9.26 µM) | COc1ccc(C(O)(Cn2cnnn2)C(F)(F)c2ccc3cc(Cl)ccc3n2)cc1 (centres unmarked) [Compound 15, 1-(6-Chloroquinolin-2-yl)-1,1-difluoro-2-(4-methoxyphenyl)-3-(1H-tetrazol-1-yl)propan-2-ol]
0.5 to 1.5 (≈ 1.14 to 3.43 µM) | OC(Cn1ncnn1)(c1ccc(F)cc1F)C(F)(F)c1ccc2cc(Cl)ccc2n1 (centres unmarked) [Compound 16, 1-(6-Chloroquinolin-2-yl)-2-(2,4-difluorophenyl)-1,1-difluoro-3-(2H-tetrazol-2-yl)propan-2-ol]
≤ 0.5 | OC(Cn1cnnn1)(c1ccc(F)cc1F)C(F)(F)c1ccc2cc(F)ccc2n1 (centres unmarked) [Compound 17, 2-(2,4-Difluorophenyl)-1,1-difluoro-1-(6-fluoroquinolin-2-yl)-3-(1H-tetrazol-1-yl)propan-2-ol]
0.5 to 1.5 (≈ 0.997 to 2.99 µM) | OC(Cn1cnnn1)(c1ccc(F)cc1F)C(F)(F)c1ccc2cc(OCC(F)(F)F)ccc2n1 (centres unmarked) [Compound 19, 2-(2,4-Difluorophenyl)-1,1-difluoro-3-(1H-tetrazol-1-yl)-1-(6-(2,2,2-trifluoroethoxy)quinolin-2-yl)propan-2-ol]
0.5 to 1.5 (≈ 1.03 to 3.08 µM) | OC(Cn1cnnn1)(c1ccc(C(F)(F)F)cc1F)C(F)(F)c1ccc2cc(Cl)ccc2n1 (centres unmarked) [Compound 20, 1-(6-Chloroquinolin-2-yl)-1,1-difluoro-2-(2-fluoro-4-(trifluoromethyl)phenyl)-3-(1H-tetrazol-1-yl)propan-2-ol]
1.5 to 4 (≈ 2.97 to 7.93 µM) | OC(Cn1cnnn1)(c1ccc(C(F)(F)F)cc1Cl)C(F)(F)c1ccc2cc(Cl)ccc2n1 (centres unmarked) [Compound 22, 2-(2-Chloro-4-(trifluoromethyl)phenyl)-1-(6-chloroquinolin-2-yl)-1,1-difluoro-3-(1H-tetrazol-1-yl)propan-2-ol]
≤ 0.5 | OC(Cn1cnnn1)(c1ccc(F)c(F)c1)C(F)(F)c1ccc2cc(Cl)ccc2n1 (centres unmarked) [Compound 23, 1-(6-Chloroquinolin-2-yl)-2-(3,4-difluorophenyl)-1,1-difluoro-3-(1H-tetrazol-1-yl)propan-2-ol]
≤ 0.5 | N#Cc1ccc2nc(C(F)(F)C(O)(Cn3cnnn3)c3ccc(F)cc3F)ccc2c1 (centres unmarked) [Compound 24, 2-(2-(2,4-Difluorophenyl)-1,1-difluoro-2-hydroxy-3-(1H-tetrazol-1-yl)propyl)quinoline-6-carbonitrile]
≤ 0.5 | OC(Cn1cnnn1)(c1ccc(F)cc1F)C(F)(F)c1ccc2c(Cl)c(Cl)ccc2n1 (centres unmarked) [Compound 29, 1-(5,6-Dichloroquinolin-2-yl)-2-(2,4-difluorophenyl)-1,1-difluoro-3-(1H-tetrazol-1-yl)propan-2-ol]
1.5 to 4 (≈ 2.99 to 7.98 µM) | OC(Cn1cnnn1)(c1ccc(F)cc1F)C(F)(F)c1ccc2c(OCC(F)(F)F)cccc2n1 (centres unmarked) [Compound 30, 2-(2,4-Difluorophenyl)-1,1-difluoro-3-(1H-tetrazol-1-yl)-1-(5-(2,2,2-trifluoroethoxy)quinolin-2-yl)propan-2-ol]
1.5 to 4 (≈ 3.43 to 9.14 µM) | OC(Cn1cnnn1)(c1ccc(F)cc1F)C(F)(F)c1ccc2c(Cl)cccc2n1 (centres unmarked) [Compound 31, 1-(5-Chloroquinolin-2-yl)-2-(2,4-difluorophenyl)-1,1-difluoro-3-(1H-tetrazol-1-yl)propan-2-ol]
1.5 to 4 (≈ 3.43 to 9.16 µM) | OC(Cn1cnnc1)(c1ccc(F)cc1F)C(F)(F)c1ccc2cc(Cl)ccc2n1 (centres unmarked) [Compound 35, 1-(6-Chloroquinolin-2-yl)-2-(2,4-difluorophenyl)-1,1-difluoro-3-(4H-1,2,4-triazol-4-yl)propan-2-ol]
1.5 to 4 (≈ 2.84 to 7.58 µM) | OC(Cn1cnnn1)(c1ccc(F)cc1F)C(F)(F)c1ccc(-c2ccc(OCC(F)(F)F)cc2)nc1 (centres unmarked) [Compound 36, 2-(2,4-Difluorophenyl)-1,1-difluoro-3-(1H-tetrazol-1-yl)-1-(6-(4-(2,2,2-trifluoroethoxy)phenyl)pyridin-3-yl)propan-2-ol]
0.5 to 1.5 (≈ 1.08 to 3.23 µM) | OC(Cn1cnnn1)(c1ccc(F)cc1F)C(F)(F)c1cnc(-c2ccc(Cl)cc2)cn1 (centres unmarked) [Compound 40, 1-(5-(4-Chlorophenyl)pyrazin-2-yl)-2-(2,4-difluorophenyl)-1,1-difluoro-3-(1H-tetrazol-1-yl)propan-2-ol]
≤ 0.5 | OC(Cn1cnnn1)(c1ccc(F)cc1F)C(F)(F)c1cnc(-c2ccc(OCC(F)(F)F)cc2)cn1 (centres unmarked) [Compound 41, 2-(2,4-Difluorophenyl)-1,1-difluoro-3-(1H-tetrazol-1-yl)-1-(5-(4-(2,2,2-trifluoroethoxy)phenyl)pyrazin-2-yl)propan-2-ol]
0.5 to 1.5 (≈ 1.07 to 3.22 µM) | OC(Cn1cnnn1)(c1ccc(F)cc1F)C(F)(F)c1cnc(-c2ccc(F)c(F)c2)cn1 (centres unmarked) [Compound 44, 2-(2,4-Difluorophenyl)-1-(5-(3,4-difluorophenyl)pyrazin-2-yl)-1,1-difluoro-3-(1H-tetrazol-1-yl)propan-2-ol]
1.5 to 4 (≈ 3.02 to 8.06 µM) | OC(Cn1cnnn1)(c1ccc(F)cc1)C(F)(F)c1cnc(-c2ccc(OC(F)(F)F)cc2)cn1 (centres unmarked) [Compound 45, 1,1-Difluoro-2-(4-fluorophenyl)-3-(1H-tetrazol-1-yl)-1-(5-(4-(trifluoromethoxy)phenyl)pyrazin-2-yl)propan-2-ol]
0.5 to 1.5 (≈ 1.12 to 3.35 µM) | OC(Cn1cnnn1)(c1ccc(F)cc1F)C(F)(F)c1cnc(-c2ccc(F)cc2)cn1 (centres unmarked) [Compound 46, 2-(2,4-Difluorophenyl)-1,1-difluoro-1-(5-(4-fluorophenyl)pyrazin-2-yl)-3-(1H-tetrazol-1-yl)propan-2-ol]
> 4 | OC(Cn1ncnn1)(c1ccc(F)cc1F)C(F)(F)c1cnc(-c2ccc(F)cc2)cn1 (centres unmarked) [Compound 47, 2-(2,4-Difluorophenyl)-1,1-difluoro-1-(5-(4-fluorophenyl)pyrazin-2-yl)-3-(2H-tetrazol-2-yl)propan-2-ol]
≤ 0.5 | OC(Cn1cnnn1)(c1ccc(F)cc1F)C(F)(F)c1cnc(C#Cc2ccc(F)cc2)cn1 (centres unmarked) [Compound 50, 2-(2,4-Difluorophenyl)-1,1-difluoro-1-(5-((4-fluorophenyl)ethynyl)pyrazin-2-yl)-3-(1H-tetrazol-1-yl)propan-2-ol]

Structure (SMILES) | MIC [µg/mL]
OC(Cn1cnnn1)(c1ccc(F)cc1F)C(F)(F)c1cnc2cc(Cl)ccc2n1 (stereo not drawn) [10(−), 1-(6-Chloroquinoxalin-2-yl)-2-(2,4-difluorophenyl)-1,1-difluoro-3-(1H-tetrazol-1-yl)propan-2-ol] | ≤ 0.5
